Laboratory results published in patent EP1100821B1, “ANTI-INFLAMMATORY COMPOUNDS DERIVED FROM LIPOCORTIN-1” (priority 1998, dated 2006).
No end group written: not given here.

Key:
A549 cell line = conditions: in vitro A549 model; previous publications (Croxtall et al., 1993, 1998); cited from earlier work
PMN migration = format: in vivo; conditions: peptide s.c. 30 min prior to 1 mg zymosan into 6-day-old air-pouches; PMN counted 4 h after zymosan; n=15; P<0.01
Method: Male Swiss Albino mice (20-22 g body weight) were purchased from Interfauna (CFLP strain; Huntingdon, Cambridgeshire, UK) and maintained on a standard chow pellet diet with tap water ad libitum. Animals were used at least one week after arrival.
Air-pouches were formed on the back of the mice by subcutaneous (s.c.) injection of 2.5 ml of air on day 2 and day 5. Three days after the last air-injection (6-day-old air-pouches) 1 mg of zymosan (in 0.5 ml of sterile saline) was injected locally (Perretti et al., 1996). Zymosan was previously boiled for 30 min in phosphate buffered solution (PBS), extensively washed in the same medium and stored at -20°C prior to use.
Four hours after the local injection of zymosan, mice were killed by CO2 exposure and the air-pouches washed with 2 ml of PBS containing ethylenediaminetetracetic acid sodium salt (EDTA; 3 mM) and heparin (25 U/ml). […] The number of PMN was determined, using a Neubauer haematocytometer, after staining (1:10 dilution) with Turk's solution (crystal violet 0.01 % w/v in acetic acid 3% v/v).
Control mice were treated with sterile PBS (100 µl s.c.).

Substance	inhibitory effect on A549 cell function (A549 cell line)	Approximate ED50s (inhibition of PMN migration) (PMN migration) [nmol]
LC11-12: lipocortin 1 N-terminal fragment, residues 1-12, from previous publications (MAMVSEFLKQAW; UniProt P04083 1-12, looked up, fragment)	inactive	
EQEYVQTV [LC118-25]	significant inhibitory activity	
Ac-AMVSEFLKQAW [LC12-12, Ac-AMVSEFLKQAW]		~110
